{
  "source": "patent US10323022B2",
  "about": "“Pyrrolidinyl urea, pyrrolidinyl thiourea and pyrrolidinyl guanidine compounds as TrkA kinase inhibitors” (Array BioPharma Inc., priority 2011, dated 2019)",
  "note": "pIC50: −log10 of the molar value. Counter-ions that a name gives are not always drawn.",
  "data": [
    {"molecular_target": "TrkA (Homo sapiens (Human), UniProt P04629)", "sequence (P04629 33-796)": "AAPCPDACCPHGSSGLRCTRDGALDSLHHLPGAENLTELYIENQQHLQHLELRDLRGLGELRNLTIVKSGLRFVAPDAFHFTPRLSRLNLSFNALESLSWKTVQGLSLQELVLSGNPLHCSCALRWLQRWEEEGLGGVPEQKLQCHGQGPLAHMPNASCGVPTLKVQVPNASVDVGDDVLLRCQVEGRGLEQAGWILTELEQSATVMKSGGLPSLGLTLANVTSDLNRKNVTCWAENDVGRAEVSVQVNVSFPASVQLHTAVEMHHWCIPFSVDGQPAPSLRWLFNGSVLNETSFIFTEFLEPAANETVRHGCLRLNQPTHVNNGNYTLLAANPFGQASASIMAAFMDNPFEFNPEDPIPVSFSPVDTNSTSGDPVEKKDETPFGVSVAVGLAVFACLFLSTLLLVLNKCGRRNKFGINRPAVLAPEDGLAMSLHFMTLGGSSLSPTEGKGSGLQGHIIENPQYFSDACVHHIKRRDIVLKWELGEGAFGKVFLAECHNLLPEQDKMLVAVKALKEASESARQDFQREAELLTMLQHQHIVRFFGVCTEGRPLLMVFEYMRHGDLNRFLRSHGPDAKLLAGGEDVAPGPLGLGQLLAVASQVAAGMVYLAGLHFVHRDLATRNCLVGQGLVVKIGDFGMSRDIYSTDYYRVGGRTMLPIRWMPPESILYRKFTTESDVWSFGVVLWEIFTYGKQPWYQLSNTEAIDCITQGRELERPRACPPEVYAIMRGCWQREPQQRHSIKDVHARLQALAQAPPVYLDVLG", "experiment": "TrkA Omnia Assay", "type": "biochemical", "conditions": "averaged IC50; 20 nM enzyme, 500 μM ATP, 10 μM peptide substrate", "summary_of_the_method": "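Recombinant TrkA (20 nM) preincubated 10 min at ambient temperature with compound, then Omnia Tyr Peptide #4 (10 μM) and ATP (500 μM) added in 25 mM MOPS pH 7.5, 5 mM MgCl2, 0.005% Triton X-100. Fluorescence (ex 360/em 485 nm) followed continuously for 70 min; IC50 from initial rates by 4- or 5-parameter logistic fit.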", "values": [
      {"molecule": "COCCN1C[C@@H](NC(=O)Nc2c(C)c(-c3ccc(=O)n(CC(F)(F)F)c3)nn2-c2ccccc2)[C@H](c2ccc(F)c(F)c2)C1", "note": "[Example 517, 1-((3S,4R)-4-(3,4-difluorophenyl)-1-(2-methoxyethyl)pyrrolidin-3-yl)-3-(4-methyl-3-(6-oxo-1-(2,2,2-trifluoroethyl)-1,6-dihydropyridin-3-yl)-1-phenyl-1H-pyrazol-5-yl)urea]", "pIC50": "> 7.00"},
      {"molecule": "COCCN1C[C@@H](NC(=O)Nc2c(C)c(-c3cnn(C(C)C)c3)nn2-c2ccccc2)[C@H](c2ccc(F)cc2)C1", "note": "[Example 518, 1-((3S,4R)-4-(4-fluorophenyl)-1-(2-methoxyethyl)pyrrolidin-3-yl)-3-(1′-isopropyl-4-methyl-1-phenyl-1H, 1′H-[3,4′-bipyrazol]-5-yl)urea]", "pIC50": "> 7.00"},
      {"molecule": "COCCN1C[C@@H](NC(=O)Nc2c(C)c(-c3ccc(=O)n(C)c3)nn2-c2ccccc2)[C@H](c2ccc(F)cc2)C1", "note": "[Example 519, 1-((3S,4R)-4-(4-fluorophenyl)-1-(2-methoxyethyl)pyrrolidin-3-yl)-3-(4-methyl-3-(1-methyl-6-oxo-1,6-dihydropyridin-3-yl)-1-phenyl-1H-pyrazol-5-yl)urea]", "pIC50": "> 7.00"},
      {"molecule": "Cc1c(Br)nn(-c2ccccc2)c1NC(=O)N[C@H]1CN(CC(F)(F)F)C[C@@H]1c1ccccc1", "note": "[Example 520, 1-(3-bromo-4-methyl-1-phenyl-1H-pyrazol-5-yl)-3-((3R,4S)-4-phenyl-1-(2,2,2-trifluoroethyl)pyrrolidin-3-yl)urea]", "pIC50": "> 7.00"},
      {"molecule": "Cc1c(-c2cnc(N)nc2)nn(-c2ccccc2)c1NC(=O)N[C@H]1CN(CC(F)(F)F)C[C@@H]1c1ccccc1", "note": "[Example 522, 1-(3-(2-aminopyrimidin-5-yl)-4-methyl-1-phenyl-1H-pyrazol-5-yl)-3-((3R,4S)-4-phenyl-1-(2,2,2-trifluoroethyl)pyrrolidin-3-yl)urea bis(2,2,2-trifluoroacetate)]", "pIC50": "> 7.00"},
      {"molecule": "CCn1cc(-c2nn(-c3ccccc3)c(NC(=O)N[C@@H]3CN(CCOC)C[C@H]3c3ccc(F)c(F)c3)c2C)cn1", "note": "[Example 523, 1-((3S,4R)-4-(3,4-difluorophenyl)-1-(2-methoxyethyl)pyrrolidin-3-yl)-3-(1′-ethyl-4-methyl-1-phenyl-1H, 1′H-[3,4′-bipyrazol]-5-yl)urea]", "pIC50": "> 7.00"},
      {"molecule": "CCn1cc(-c2nn(-c3ccccc3)c(NC(=O)N[C@@H]3CN(CCOC)C[C@H]3c3ccc(F)cc3)c2C)cn1", "note": "[Example 524, 1-(1′-ethyl-4-methyl-1-phenyl-1H, 1′H-[3,4′-bipyrazol]-5-yl)-3-((3S,4R)-4-(4-fluorophenyl)-1-(2-methoxyethyl)pyrrolidin-3-yl)urea]", "pIC50": "> 7.00"},
      {"molecule": "COCCN1C[C@@H](NC(=O)Nc2c(C)c(OS(=O)(=O)C(F)(F)F)nn2-c2ccccc2)[C@H](c2ccc(F)c(F)c2)C1", "note": "[Example 525, 5-(3-((3S,4R)-4-(3,4-difluorophenyl)-1-(2-methoxyethyl)pyrrolidin-3-yl)ureido)-4-methyl-1-phenyl-1H-pyrazol-3-yl trifluoromethanesulfonate]", "pIC50": "> 7.00"},
      {"molecule": "COCCN1C[C@@H](NC(=O)Nc2c(C)c(-c3cnc(OC)nc3)nn2-c2ccccc2)[C@H](c2ccc(F)c(F)c2)C1", "note": "[Example 526, 1-((3S,4R)-4-(3,4-difluorophenyvl)-1-(2-methoxyethyl)pyrrolidin-3-yl)-3-(3-(2-methoxypyrimidin-5-yl)-4-methyl-1-phenyl-1H-pyrazol-5-yl)urea]", "pIC50": "> 7.00"},
      {"molecule": "COCCN1C[C@@H](NC(=O)Nc2c(C)c(-c3cnc(N(C)C)nc3)nn2-c2ccccc2)[C@H](c2ccc(F)c(F)c2)C1", "note": "[Example 527, 1-((3S,4R)-4-(3,4-difluorophenyl)-1-(2-methoxyethyl)pyrrolidin-3-yl)-3-(3-(2-(dimethylamino)pyrimidin-5-yl)-4-methyl-l-phenyl-1H-pyrazol-5-yl)urea]", "pIC50": "> 7.00"},
      {"molecule": "COCCN1C[C@@H](NC(=O)Nc2c(C)c(-c3cnc(OC)nc3)nn2-c2ccccc2)[C@H](c2ccc(F)cc2)C1", "note": "[Example 528, 1-((3S,4R)-4-(4-fluorophenyl)-1-(2-methoxyethyl)pyrrolidin-3-yl)-3-(3-(2-methoxypyrimidin-5-yl)-4-methyl-1-phenyl-1H-pyrazol-5-yl)urea]", "pIC50": "> 7.00"},
      {"molecule": "COCCN1C[C@@H](NC(=O)Nc2c(C)c(-c3cnc(N(C)C)nc3)nn2-c2ccccc2)[C@H](c2ccc(F)cc2)C1", "note": "[Example 529, 1-(3-(2-(dimethylamino)pyrimidin-5-yl)-4-methyl-1-phenyl-1H-pyrazol-5-yl)-3-((3S,4R)-4-(4-fluorophenyl)-1-(2-methoxyethyl)pyrrolidin-3-yl)urea]", "pIC50": "> 7.00"},
      {"molecule": "CCn1cc(-c2nn(-c3ccccc3)c(NC(=O)N[C@@H]3CN(CCOC)C[C@H]3c3cccc(F)c3)c2C)cn1", "note": "[Example 530, 1-(1′-ethyl-4-methyl-1-phenyl-1H,1′H-[3,4′-bipyrazol]-5-yl)-3-((3S,4R)-4-(3-fluorophenyl)-1-(2-methoxyethyl)pyrrolidin-3-yl)urea]", "pIC50": "> 7.00"},
      {"molecule": "COCCN1C[C@@H](NC(=O)Nc2c(C)c(-c3ccn(C)c(=O)c3)nn2-c2ccccc2)[C@H](c2cccc(F)c2)C1", "note": "[Example 531, 1-((3S,4R)-4-(3-fluorophenyl)-1-(2-methoxyethyl)pyrrolidin-3-yl)-3-(4-methyl-3-(1-methyl-2-oxo-1,2-dihydropyridin-4-yl)-1-phenyl-1H-pyrazol-5-yl)urea]", "pIC50": "> 7.00"},
      {"molecule": "COCCN1C[C@@H](NC(=O)Nc2c(C)c(-c3ccn(C)c(=O)c3)nn2-c2ccccc2)[C@H](c2ccc(F)cc2)C1", "note": "[Example 532, 1-((3S,4R)-4-(4-fluorophenyl)-1-(2-methoxyethyl)pyrrolidin-3-yl)-3-(4-methyl-3-(1-methyl-2-oxo-1,2-dihydropyridin-4-yl)-1-phenyl-1H-pyrazol-5-yl)urea]", "pIC50": "> 7.00"},
      {"molecule": "COCCN1C[C@@H](NC(=O)Nc2c(C)c(C3CC3)nn2-c2ccccc2)[C@H](c2ccc(F)c(F)c2)C1", "note": "[Example 533, 1-(3-cyclopropyl-4-methyl-1-phenyl-1H-pyrazol-5-yl)-3-((3S,4R)-4-(3,4-difluorophenyl)-1-(2-methoxyethyl)pyrrolidin-3-yl)urea]", "pIC50": "> 7.00"},
      {"molecule": "COCCN1C[C@@H](NC(=O)Nc2c(C)c(C3CC3)nn2-c2ccccc2)[C@H](c2ccc(F)cc2)C1", "note": "[Example 534, 1-(3-cyclopropyl-4-methyl-1-phenyl-1H-pyrazol-5-yl)-3-((3S,4R)-4-(4-fluorophenyl)-1-(2-methoxyethyl)pyrrolidin-3-yl)urea]", "pIC50": "> 7.00"},
      {"molecule": "COCCN1C[C@@H](NC(=O)Nc2c(C)c(-c3ccc(=O)n(C(C)C)c3)nn2-c2ccccc2)[C@H](c2ccc(F)c(F)c2)C1", "note": "[Example 535, 1-((3S,4R)-4-(3,4-difluorophenyl)-1-(2-methoxyethyl)pyrrolidin-3-yl)-3-(3-(1-isopropyl-6-oxo-1,6-dihydropyridin-3-yl)-4-methyl-1-phenyl-1H-pyrazol-5-yl)urea]", "pIC50": "> 7.00"},
      {"molecule": "COCCN1C[C@@H](NC(=O)Nc2c(C)c(-c3ccc(=O)n(C(C)C)c3)nn2-c2ccccc2)[C@H](c2ccc(F)cc2)C1", "note": "[Example 536, 1-((3S,4R)-4-(4-fluorophenyl)-1-(2-methoxyethyl)pyrrolidin-3-yl)-3-(3-(1-isopropyl-6-oxo-1,6-dihydropyridin-3-yl)-4-methyl-1-phenyl-1H-pyrazol-5-yl)urea]", "pIC50": "> 7.00"},
      {"molecule": "COCCN1C[C@@H](NC(=O)Nc2c(C)c(OC[C@H](C)O)nn2-c2ccccc2)[C@H](c2cc(F)cc(F)c2)C1", "note": "[Example 537, 1-((3S,4R)-4-(3,5-difluorophenyl)-1-(2-methoxyethyl)pyrrolidin-3-yl)-3-(3-((S)-2-hydroxypropoxy)-4-methyl-1-phenyl-1H-pyrazol-5-yl)urea dihydrochloride]", "pIC50": "> 7.00"},
      {"molecule": "COCCN1C[C@@H](NC(=O)Nc2c(C)c(OCCN3CCNCC3)nn2-c2ccccc2)[C@H](c2ccc(F)c(F)c2)C1", "note": "[Example 538, 1-((3S,4R)-4-(3,5-difluorophenyvl)-1-(2-methoxyethyl)pyrrolidin-3-yl)-3-(4-methyl-1-phenyl-3-(2-(piperazin-1-yl)ethoxy)-1H-pyrazol-5-yl)urea trihydrochloride]", "pIC50": "> 7.00"},
      {"molecule": "COCCN1C[C@@H](NC(=O)Nc2c(Cl)c(OCc3ccccc3)nn2C)[C@H](c2ccc(F)c(F)c2)C1", "note": "[Example 539, 1-(3-(benzyloxy)-4-chloro-1-methyl-1H-pyrazol-5-yl)-3-((3S,4R)-4-(3,4-difluorophenyl)-1-(2-methoxyethyl)pyrrolidin-3-yl)urea]", "pIC50": "6.00 to 7.00"},
      {"molecule": "COCCN1C[C@@H](NC(=O)Nc2c(C)c(OCC(=O)O)nn2-c2ccccc2)[C@H](c2ccc(F)c(F)c2)C1", "note": "[Example 540, 2-((5-(3-((3S,4R)-4-(3,4-difluorophenyl)-1-(2-methoxyethyl)pyrrolidin-3-yl)ureido)-4-methyl-1-phenyl-1H-pyrazol-3-yl)oxy)acetic acid]", "pIC50": "> 7.00"},
      {"molecule": "CCNC(=O)COc1nn(-c2ccccc2)c(NC(=O)N[C@@H]2CN(CCOC)C[C@H]2c2ccc(F)c(F)c2)c1C", "note": "[Example 541, 2-((5-(3-((3S,4R)-4-(3,4-difluorophenyl)-1-(2-methoxyethyl)pyrrolidin-3-yl)ureido)-4-methyl-1-phenyl-1H-pyrazol-3-yl)oxy)-N-ethylacetamide]", "pIC50": "> 7.00"},
      {"molecule": "CCc1c(OCC(C)(C)O)nn(-c2ccccc2)c1NC(=O)N[C@@H]1CN(CCOC)C[C@H]1c1ccc(F)c(F)c1", "note": "[Example 542, 1-((3S,4R)-4-(3,4-difluorophenyvl)-1-(2-methoxyethyl)pyrrolidin-3-yl)-3-(4-ethyl-3-(2-hydroxy-2-methylpropoxy)-1-phenyl-1H-pyrazol-5-yl)urea]", "pIC50": "> 7.00"},
      {"molecule": "COCCN1C[C@@H](NC(=O)Nc2c(C)c(OCCN)nn2-c2ccccc2)[C@H](c2ccc(F)c(F)c2)C1", "note": "[Example 543, 1-(3-(2-aminoethoxy)-4-methyl-1-phenyl-1H-pyrazol-5-yl)-3-((3S,4R)-4-(3,4-difluorophenyl)-1-(2-methoxyethyl)pyrrolidin-3-yl)urea]", "pIC50": "> 7.00"}
    ]}
  ]
}
